Read-outs that look alike come from different tables or passages of the source.
Columns and labels:
Type in all cases: physicochemical
[1] = Weight loss after 3 hours at 130° C.
Protocol: 12.0 g of pentaerythritol, 42.8 g of phenylglyoxylic acid and 0.27 g of sulfuric acid are suspended in 17.8 g of methylcyclohexane and the suspension is heated under reflux. The water of esterification is removed via a separating vessel, so that the esterification reaction is at an end after 8 hours. Distillation of the methylcyclohexane leaves a solid melt (acid number 25 mg KOH/g). The weight loss after 3 hours at 130° C. is 7.3%.
21.4 g of 1,4-butanediol diglycidyl ether (Araldit DY026) are mixed with 30 g of phenylglyoxylic acid in the presence of 0.5 g of tetrabutylammonium bromide. The mixture is cautiously heated to 103° C. and is held at this temperature for 5 hours until the acid number has fallen to 7.2 mg KOH/g. The product is a highly viscous liquid (153.6 Pas). The weight loss after 3 hours at 130° C. is 0.7%.
28.84 g of 1,4-bis(hydroxymethyl)cyclohexane, 72.23 g of methyl phenylglyoxylate and 0.82 g of dibutoxydibutyltin are melted over 180° C. in a reaction flask and methanol is distilled off via a column. After virtually all of the theoretical amount of methanol has passed over, the residue is concentrated on a rotary evaporator, the concentrate is digested in ethanol, and the resulting solid is filtered off with suction. The IR and H-NMR spectra correspond to the expected structure. The melting point is 92° C. The weight loss after 3 hours at 130° C. is 0.5%.

[2] = Solubility in Laromer LR 8987
Excerpt: Using a box-type coating bar, a glass plate was coated with this formulation so as to form a film having a thickness of 50 μm or 100 μm. This film was subsequently cured in an IST belt exposure unit at 10 m/min under air.
4 parts of 4,4′-isopropylidenedicyclohexanol di(phenylglyoxylate) [hydrogenated bisphenol-A-di(phenylglyoxylate)] were insoluble in 96 parts of Laromer LR 8987. Therefore, radiation curing was not possible.
However, the solubility was sufficient to prepare and cure a film as described above.

[3] = Solubility in hexanediol diacrylate (HDDA); parameters: key: sol = soluble; insol = insoluble
Excerpt: a) Solubility in hexanediol diacrylate (HDDA)

[4] = Solubility in an aliphatic urethane acrylate; conditions: 2%
Protocol: b) The solubility of 2% each of 1,4-cyclohexanedimethanol di(phenylglyoxylate) and 4,4′-isopropylidenedicyclohexanol di(phenylglyoxylate) in an aliphatic urethane acrylate was also tested.

In the case of “1,4-Butanediol Diglycidyl Ether Diglyoxylate [Example 2]”, the “weight loss after 3 hours at 130° C.” value [1] is reported as 0.7%.

For “4,4′-isopropylidenedicyclohexanol di(phenylglyoxylate)”, the “solubility in Laromer LR 8987” value ([2]; 4 parts in 96 parts of Laromer LR 8987 (mixture of hexanediol diacrylate and an aliphatic urethane acrylate)) was “insoluble”, the “Solubility in hexanediol diacrylate (HDDA)” value (shortened to “Solubility … (HDDA)”) ([3]; 1%) was “sol” and the “Solubility … (HDDA)” value ([3]; 2%) was “in-”. For the same compound, the “solubility in an aliphatic urethane acrylate” value [4] was “insoluble or did not dissolve completely”.

With `O=C(OC1CCC(OC(=O)C(=O)c2ccccc2)CC1)C(=O)c1ccccc1` (stereo not shown) [1,4-cyclohexanediol di(phenylglyoxylate)] the “solubility in Laromer LR 8987” value [2] was “did not dissolve completely”, the “Solubility … (HDDA)” value ([3]; 1%) was “sol” and the “Solubility … (HDDA)” value ([3]; 2%) was “sol”. For the same compound, the “Solubility … (HDDA)” value ([3]; 3%) was “in-”.

With `O=CC(=O)OCC(COC(=O)C=O)(COC(=O)C=O)COC(=O)C=O` [Example 1, Pentaerythritol Tetraglyoxylate] the “weight loss after 3 hours at 130° C.” value [1] was 7.3%.

From patent US6562464B1, “Utilization of phenylglyoxalic acid esters as photoinitiators” (BASF Aktiengesellschaft, priority 1999, dated 2003)
